Patent publication US8741906B2 (priority 2011, dated 2014)
Where two headings read alike, the source gives them in different places.

Key:
human CB1 receptors = target: T1, human CB1 receptors (Homo sapiens, UniProt P21554); experiment: functional cAMP assay, human CB1; format: cell-based
T1 construct: expressed in transfected cells; host or cells: CHO cells
Procedure, shortened: (§1)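 Compound exposure lasted 30 min at 30 °C in IBMX (1 mM)-containing Krebs Ringer bicarbonate buffer, applied to human CB1- or CB2-expressing CHO cells. Lysates were read by time-resolved FRET cAMP detection, converted via cAMP standard curve (10 μM–0.13 nM), and EC50 values calculated.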

human CB2 receptors = target: T2, human CB2 receptors (Homo sapiens, UniProt P34972); experiment: functional cAMP assay, human CB2; format: cell-based
T2 construct: expressed in transfected cells; host or cells: CHO cells
Procedure, shortened: as §1

[1] = CHO cells expressing human CB1, cAMP, read-out: human CB1 EC50
[2] = CHO cells expressing human CB2, cAMP, read-out: human CB2 EC50

T1 sequence (P21554 whole entry): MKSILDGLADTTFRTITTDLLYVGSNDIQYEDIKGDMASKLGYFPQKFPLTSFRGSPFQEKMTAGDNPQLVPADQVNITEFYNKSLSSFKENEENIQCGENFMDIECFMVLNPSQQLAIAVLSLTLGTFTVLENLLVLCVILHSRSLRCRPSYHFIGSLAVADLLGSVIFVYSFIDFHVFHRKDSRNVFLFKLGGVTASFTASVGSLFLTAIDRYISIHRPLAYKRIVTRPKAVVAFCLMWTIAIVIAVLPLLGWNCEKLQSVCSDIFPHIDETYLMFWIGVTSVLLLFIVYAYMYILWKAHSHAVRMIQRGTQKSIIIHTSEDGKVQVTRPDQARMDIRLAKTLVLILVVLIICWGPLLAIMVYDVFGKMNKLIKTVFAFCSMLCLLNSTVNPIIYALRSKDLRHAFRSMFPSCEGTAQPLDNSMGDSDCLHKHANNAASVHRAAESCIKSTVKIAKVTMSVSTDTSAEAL
T2 sequence (P34972 whole entry): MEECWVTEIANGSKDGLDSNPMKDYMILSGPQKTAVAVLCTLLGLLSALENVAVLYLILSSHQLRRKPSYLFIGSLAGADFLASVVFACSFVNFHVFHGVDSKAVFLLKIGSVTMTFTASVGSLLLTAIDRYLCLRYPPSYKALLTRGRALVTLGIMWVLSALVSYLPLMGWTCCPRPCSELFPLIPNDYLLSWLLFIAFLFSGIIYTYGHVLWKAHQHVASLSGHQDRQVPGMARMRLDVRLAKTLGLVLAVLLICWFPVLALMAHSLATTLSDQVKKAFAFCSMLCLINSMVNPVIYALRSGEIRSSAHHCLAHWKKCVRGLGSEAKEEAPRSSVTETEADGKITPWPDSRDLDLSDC

SMILES	EC50 (human CB1 receptors; [1]) [nM]	EC50 (human CB2 receptors; [2]) [nM]	EC50 (human CB1 receptors) [nM]	EC50 (human CB2 receptors) [nM]
CC(C)(C)c1nc(N2CCC(F)(F)C2)c2nnn(CCc3ccncc3)c2n1 [Example 122, 5-tert-Butyl-7-(3,3-difluoro-pyrrolidin-1-yl)-3-(2-pyridin-4-yl-ethyl)-3H-[1,2,3]triazolo[4,5-d]pyrimidine]	> 10000	1.3		
CC(C)(C)c1nc(N2CCC(F)(F)C2)c2nnn(Cc3c(C(F)(F)F)ccc(Cl)c3Cl)c2n1 [Example 123, 5-tert-Butyl-3-(2,3-dichloro-6-trifluoromethyl-benzyl)-7-(3,3-difluoro-pyrrolidin-1-yl)-3H-[1,2,3]triazolo[4,5-d]pyrimidine]	306	0.8		
CC(C)(C)c1nc(N2CCC(F)(F)C2)c2nnn(Cc3nccc(Cl)c3Cl)c2n1 [Example 124, 5-tert-Butyl-3-(3,4-dichloro-pyridin-2-ylmethyl)-7-(3,3-difluoro-pyrrolidin-1-yl)-3H-[1,2,3]triazolo[4,5-d]pyrimidine]	276	0.3		
CC(C)(C)c1nc(N2CCC(F)(F)C2)c2nnn(C3CS(=O)(=O)C3)c2n1 [Example 125, 5-tert-Butyl-7-(3,3-difluoro-pyrrolidin-1-yl)-3-(1,1-dioxo-1λ^6-thietan-3-yl)-3H-[1,2,3]triazolo[4,5-d]pyrimidine]	> 10000	1.9		
CC(C)(C)c1nc(N2CCC(F)(F)C2)c2nnn(C3CCS(=O)(=O)C3)c2n1 (stereo not drawn) [Example 126, 5-tert-Butyl-7-(3,3-difluoro-pyrrolidin-1-yl)-3-(1,1-dioxo-tetrahydro-1λ^6-thiophen-3-yl)-3H-[1,2,3]triazolo[4,5-d]pyrimidine]	496	0.3		
CC(C)(C)c1nc(N2CCC(F)(F)C2)c2nnn(CC(=O)c3ccccn3)c2n1 [Example 127, 2-[5-tert-Butyl-7-(3,3-difluoro-pyrrolidin-1-yl)-[1,2,3]triazolo[4,5-d]pyrimidin-3-yl]-1-pyridin-2-yl-ethanone]	> 10000	0.4		
Cc1nnc(Cn2nnc3c(N4CCC(F)(F)C4)nc(C(C)(C)C)nc32)o1 [Example 128, 5-tert-Butyl-7-(3,3-difluoro-pyrrolidin-1-yl)-3-(5-methyl-[1,3,4]oxadiazol-2-ylmethyl)-3H-[1,2,3]triazolo[4,5-d]pyrimidine]	> 10000	0.4		
CC(C)(C)c1nc(N2CCC(F)(F)C2)c2nnn(Cc3ccncc3Cl)c2n1 [Example 129, 5-tert-Butyl-3-(3-chloro-pyridin-4-ylmethyl)-7-(3,3-difluoro-pyrrolidin-1-yl)-3H-[1,2,3]triazolo[4,5-d]pyrimidine]	670	0.1		
Cc1nc(Cn2nnc3c(N4CCC(F)(F)C4)nc(C(C)(C)C)nc32)no1 [Example 130, 5-tert-Butyl-7-(3,3-difluoro-pyrrolidin-1-yl)-3-(5-methyl-[1,2,4]oxadiazol-3-ylmethyl)-3H-[1,2,3]triazolo[4,5-d]pyrimidine]	564	0.5		
Cn1nnnc1Cn1nnc2c(N3CCC(F)(F)C3)nc(C(C)(C)C)nc21 [Example 131, 5-tert-Butyl-7-(3,3-difluoro-pyrrolidin-1-yl)-3-(1-methyl-1H-tetrazol-5-ylmethyl)-3H-[1,2,3]triazolo[4,5-d]pyrimidine]	> 10000	0.1		
Cn1ncnc1Cn1nnc2c(N3CCC(F)(F)C3)nc(C(C)(C)C)nc21 [Example 132, 5-tert-Butyl-7-(3,3-difluoro-pyrrolidin-1-yl)-3-(2-methyl-2H-[1,2,4]triazol-3-ylmethyl)-3H-[1,2,3]triazolo[4,5-d]pyrimidine]	> 10000	0.7		
Cn1c(Cn2nnc3c(N4CCC(F)(F)C4)nc(C(C)(C)C)nc32)nnc1S(C)(=O)=O [Example 133, 5-tert-Butyl-7-(3,3-difluoro-pyrrolidin-1-yl)-3-(5-methanesulfonyl-4-methyl-4H-[1,2,4]triazol-3-ylmethyl)-3H-[1,2,3]triazolo[4,5-d]pyrimidine]	> 10000	4.4		
CN(C)c1c(Cl)cncc1Cn1nnc2c(N3CCC(F)(F)C3)nc(C(C)(C)C)nc21 [Example 134, {3-[5-tert-Butyl-7-(3,3-difluoro-pyrrolidin-1-yl)-[1,2,3]triazolo[4,5-d]pyrimidin-3-ylmethyl]-5-chloro-pyridin-4-yl}-dimethyl-amine]	234	0.3		
CC(C)(C)c1nc(N2CCC(F)(F)C2)c2nnn(Cc3c[nH]nc3C(F)(F)F)c2n1 [Example 135, 5-tert-Butyl-7-(3,3-difluoro-pyrrolidin-1-yl)-3-(3-trifluoromethyl-1H-pyrazol-4-ylmethyl)-3H-[1,2,3]triazolo[4,5-d]pyrimidine]	1400	0.4		
Cc1nonc1Cn1nnc2c(N3CC[C@H](O)C3)nc(C(C)(C)C)nc21 [Example 136, (S)-1-[5-tert-Butyl-3-(4-methyl-furazan-3-ylmethyl)-3H-[1,2,3]triazolo[4,5-d]pyrimidin-7-yl]-pyrrolidin-3-ol]	> 10000	0.2		
Cc1noc(Cn2nnc3c(N4CC[C@H](O)C4)nc(C(C)(C)C)nc32)n1 [Example 137, (S)-1-[5-tert-Butyl-3-(3-methyl-[1,2,4]oxadiazol-5-ylmethyl)-3H-[1,2,3]triazolo[4,5-d]pyrimidin-7-yl]-pyrrolidin-3-ol]	> 10000	18.2		
CC(C)(C)c1nc(N2CC[C@H](O)C2)c2nnn(Cc3ncccc3Cl)c2n1 [Example 138, (S)-1-[5-tert-Butyl-3-(3-chloro-pyridin-2-ylmethyl)-3H-[1,2,3]triazolo[4,5-d]pyrimidin-7-yl]-pyrrolidin-3-ol]	> 10000	0.4		
CC(C)(C)c1nc(N2CC[C@H](O)C2)c2nnn(Cc3nc(Cl)ccc3Cl)c2n1 [Example 139, (S)-1-[5-tert-Butyl-3-(3,6-dichloro-pyridin-2-ylmethyl)-3H-[1,2,3]triazolo[4,5-d]pyrimidin-7-yl]-pyrrolidin-3-ol]	> 10000	0.3		
CC(C)(C)c1nc(N2CC[C@H](O)C2)c2nnn(Cc3cccnc3Cl)c2n1 [Example 140, (S)-1-[5-tert-Butyl-3-(2-chloro-pyridin-3-ylmethyl)-3H-[1,2,3]triazolo[4,5-d]pyrimidin-7-yl]-pyrrolidin-3-ol]	> 10000	0.1		
CC(C)(C)c1nc(N2CC[C@H](O)C2)c2nnn(Cc3cccc(Cl)c3Cl)c2n1 [Example 141, (S)-1-[5-tert-Butyl-3-(2,3-dichloro-benzyl)-3H-[1,2,3]triazolo[4,5-d]pyrimidin-7-yl]-pyrrolidin-3-ol]	> 10000	0.5		
CC(C)(C)c1nc(N2CC[C@H](O)C2)c2nnn(Cc3ccccc3C(F)(F)F)c2n1 [Example 142, (S)-1-[5-tert-Butyl-3-(2-trifluoromethyl-benzyl)-3H-[1,2,3]triazolo[4,5-d]pyrimidin-7-yl]-pyrrolidin-3-ol]	> 10000	0.2		
CC(C)(C)c1nc(N2CC[C@H](O)C2)c2nnn(Cc3ccccc3S(C)(=O)=O)c2n1 [Example 143, (S)-1-[5-tert-Butyl-3-(2-methanesulfonyl-benzyl)-3H-[1,2,3]triazolo[4,5-d]pyrimidin-7-yl]-pyrrolidin-3-ol]	> 10000	0.1		
Cc1cc(Cn2nnc3c(N4CCC(F)(F)C4)nc(C(C)(C)C)nc32)n(C)n1 [Example 144, 5-tert-Butyl-7-(3,3-difluoro-pyrrolidin-1-yl)-3-(2,5-dimethyl-2H-pyrazol-3-ylmethyl)-3H-[1,2,3]triazolo[4,5-d]pyrimidine]	123	0.4		
Cn1nncc1Cn1nnc2c(N3CCC(F)(F)C3)nc(C(C)(C)C)nc21 [Example 145, 5-tert-Butyl-7-(3,3-difluoro-pyrrolidin-1-yl)-3-(3-methyl-3H-[1,2,3]triazol-4-ylmethyl)-3H-[1,2,3]triazolo[4,5-d]pyrimidine]	2250	0.2		
Cc1nnc(Cn2nnc3c(N4CCC(F)(F)C4)nc(C(C)(C)C)nc32)n1C [Example 146, 5-tert-Butyl-7-(3,3-difluoro-pyrrolidin-1-yl)-3-(4,5-dimethyl-4H-[1,2,4]triazol-3-ylmethyl)-3H-[1,2,3]triazolo[4,5-d]pyrimidine]	> 10000	0.5		
Cc1c(Cn2nnc3c(N4CCC(F)(F)C4)nc(C(C)(C)C)nc32)ccc[n+]1[O-] [Example 147, 5-tert-Butyl-7-(3,3-difluoro-pyrrolidin-1-yl)-3-(2-methyl-1-oxy-pyridin-3-ylmethyl)-3H-[1,2,3]triazolo[4,5-d]pyrimidine]	209	0.3		
CC(C)(C)c1nc(N2CC[C@H](O)C2)c2nnn(Cc3nccc(Cl)c3Cl)c2n1 [Example 148, (S)-1-[5-tert-Butyl-3-(3,4-dichloro-pyridin-2-ylmethyl)-3H-[1,2,3]triazolo[4,5-d]pyrimidin-7-yl]-pyrrolidin-3-ol]	> 10000	0.4		
Cc1nc(Cn2nnc3c(N4CC[C@H](O)C4)nc(C(C)(C)C)nc32)no1 [Example 149, (S)-1-[5-tert-Butyl-3-(5-methyl-[1,2,4]oxadiazol-3-ylmethyl)-3H-[1,2,3]triazolo[4,5-d]pyrimidin-7-yl]-pyrrolidin-3-ol]	> 10000	17.4		
Cc1nnc(Cn2nnc3c(N4CC[C@H](O)C4)nc(C(C)(C)C)nc32)o1 [Example 150, (S)-1-[5-tert-Butyl-3-(5-methyl-[1,3,4]oxadiazol-2-ylmethyl)-3H-[1,2,3]triazolo[4,5-d]pyrimidin-7-yl]-pyrrolidin-3-ol]	> 10000	36.3		
Cn1nnnc1Cn1nnc2c(N3CC[C@H](O)C3)nc(C(C)(C)C)nc21 [Example 151, (S)-1-[5-tert-Butyl-3-(1-methyl-1H-tetrazol-5-ylmethyl)-3H-[1,2,3]triazolo[4,5-d]pyrimidin-7-yl]-pyrrolidin-3-ol]			> 10000	1.4
